In brackets after ≈: the same amount, converted by molar mass. Read-outs that look alike come from different tables or passages of the source.
Legend:
[1] = tested on: pre-clinical models of CLL; details: in vitro and in vivo; cited from earlier work
[2] = Solubility estimates by solvent aliquot addition, visual observation; type: physicochemical
Method: Aliquots of various solvents were added to measured amounts of Compound I or forms of Compound I as described herein with agitation (typically sonication) at ambient temperature until complete dissolution was achieved, as judged by visual observation. Solubilities were calculated based on the total solvent used to give a solution; actual solubilities may be greater because of the volume of solvent portions utilized or a slow rate of dissolution. […] If dissolution occurred at the first aliquot the value was reported as “>”.

uveal melanoma (UM) = details: mouse xenograft models of uveal melanoma; cited from earlier work
[3] = tested on: Eμ-TCL1 leukemic splenocytes; assay: Survival of mice engrafted with Eμ-TCL1 leukemic splenocytes, comparison with Ibrutinib; type: in vivo, C57BL/6 mice; details: 20 mg/kg, qd; for median overall survival (OS): oral gavage at leukemia onset, vehicle 21 days (FIG. 24H)
Method: FIG. 24H is a Kaplan-Meier curve showing overall survival for C57BL/6 mice engrafted with Eμ-TCL1 leukemic splenocytes treated with Ibrutinib or Compound I Free Acid Amorphous (20 mg/kg, qd, oral gavage) at leukemia onset, where the median OS is: 41 days (Compound I Free Acid Amorphous, n=7), 32 days (Ibrutinib, n=8) and 21 days (vehicle, n=7). […] Survival comparisons for FIG. 24H were made with the log-rank test, and p-values were adjusted for multiple comparisons.
FIG. 24H is a Kaplan-Meier curve showing overall survival (OS) for C57BL/6 mice engrafted with Eμ-TCL1 leukemic splenocytes treated with Ibrutinib or Compound I Free Acid Amorphous (Cmpd. I FAA) (20 mg/kg, qd, oral gavage) at leukemia onset. Survival comparisons for FIG. 24H were made with the log-rank test, and p-values were adjusted for multiple comparisons.
Ibrutinib is currently the standard of care (first-in-line) treatment.

[4] = tested on: Eμ-TCL1 with advanced leukemia; assay: Pharmacodynamic evaluation of antitumor effects in Eμ-TCL1 with advanced leukemia; type: in vivo, Mice; details: 20 mg/kg, qd, oral gavage, 8 days
Method: FIG. 24 panels A-C illustrate data related to the pharmacodynamic evaluation of antitumor effects of Compound I Free Acid Amorphous in Eμ-TCL1 with advanced leukemia. Mice were stratified according to leukemic peripheral blood lymphocytes (PBLs) and spleen palpation score to receive either vehicle or Compound I Free Acid Amorphous (20 mg/kg, qd, oral gavage) for 8 days. […] FIG. 24C is a representative immunoblot analysis of relative protein levels of cMYC, P21, BTK, IKZF1, IKZF3 and TCL1A protein at the end of the 8 day study. […] Mice were stratified according to leukemic peripheral blood lymphocytes (PBLs) and spleen palpation score to receive either vehicle or Compound I Free Acid Amorphous (20 mg/kg, qd, oral gavage) for 8 days. […] FIG. 24C is a representative immunoblot analysis of relative protein levels of cMYC, P21, BTK, IKZF1, IKZF3 and TCL1A protein at the end of the 8 day study.

[5] = tested on: adaptive transfer model of Eμ-TCL1; assay: Adaptive transfer model of Eμ-TCL1, treatment at leukemia onset; type: in vivo, wild type mice; details: 20 mg/kg, qd
Method: (§1) FIG. 24 panels D-G: using an adaptive transfer model of Eμ-TCL1, recipient wild type mice were randomized to receive vehicle (n=12) or Compound I Free Acid Amorphous (20 mg/kg, qd, oral gavage, n=10) at leukemia onset and disease progression was measured by flow cytometry as % CD19/CD5/CD45 positive PBL. Treatment was ended at 150 days. FIG. 24D is a Kaplan-Meier curve showing overall survival (OS) (p<0.0001), with the median OS for Compound I Free Acid Amorphous and the vehicle being 93 days and 34 days, respectively. Survival comparisons for FIG. 24D were made with the log-rank test, and p-values were adjusted for multiple comparisons. Compound I Free Acid Amorphous decreased the percentage of circulating leukemic PBL (FIG. 24E), and reduced spleen mass (FIG. 24F).
as §1, with “Using” for “FIG. 24 panels D-G: using”

[6] = Dynamic vapor sorption (DVS); type: physicochemical; details: from about 5% to about 95% RH
Method: Dynamic Vapor […] DVS data were collected on a VTI SGA-100 Vapor Sorption Analyzer. NaCl and PVP were used as calibration standards. Samples were not dried prior to analysis. Adsorption and desorption data were collected over a range from 5 to 95% RH at 10% RH increments under a nitrogen purge. The equilibrium criterion used for analysis was less than 0.0100% weight change in 5 minutes with a maximum equilibration time of 3 hours. Data were not corrected for the initial moisture content of the samples.

[7] = methanol (MeOH), ambient temperature

For `Cc1noc(C)c1-c1cnc2c(-c3ccc(C(=O)O)cc3)cn([C@@H](C)c3ccccn3)c2c1` [Compound I, 4-(6-(3,5-dimethylisoxazol-4-yl)-1-[(1S)-1-(2-pyridyl)ethyl]pyrrolo[3,2-b]pyridin-3-yl) benzoic acid], the “efficacy relative to B-cell receptor (BCR) signaling agents” value [1] is given as “emulatesor exceeds the efficacy of B-cell receptor (BCR) signaling agents”, the solubility ([2]; acetone, organic solvent or mixture, thermodynamic from solid, Acetone, read-out: Solubility) is given as 3000 µg/mL (≈ 6.84 mM) and the solubility ([2]; acetonitrile, organic solvent or mixture, thermodynamic from solid, Acetonitrile, read-out: Solubility) is given as under 1000 µg/mL. For the same molecule, the solubility ([2]; dichloromethane, organic solvent or mixture, thermodynamic from solid, Dichloromethane, read-out: Solubility) was under 1000 µg/mL, the solubility ([2]; dimethyl sulfoxide, organic solvent or mixture, thermodynamic from solid, Dimethyl sulfoxide, read-out: Solubility) was over 93000 µg/mL and the solubility ([2]; ethanol, organic solvent or mixture, thermodynamic from solid, Ethanol, read-out: Solubility) was under 1000 µg/mL. The solubility ([2]; ethyl acetate, organic solvent or mixture, thermodynamic from solid, Ethyl acetate, read-out: Solubility) was under 1000 µg/mL, the solubility ([2]; isopropanol, organic solvent or mixture, thermodynamic from solid, Isopropanol, read-out: Solubility) was under 1000 µg/mL and the solubility ([2]; methanol, organic solvent or mixture, thermodynamic from solid, Methanol, read-out: Solubility) was 1000 µg/mL (≈ 2.28 mM). The solubility ([2]; tetrahydrofuran, organic solvent or mixture, thermodynamic from solid, Tetrahydrofuran, read-out: Solubility) was 19000 µg/mL (≈ 43.3 mM), the solubility ([2]; water, thermodynamic from solid, Water, read-out: Solubility) was under 1000 µg/mL and the tumor growth (uveal melanoma (UM)) was “significantly inhibited tumor growth”.

For `Cc1noc(C)c1-c1cnc2c(-c3ccc(C(=O)O)cc3)cn([C@@H](C)c3ccccn3)c2c1` [Compound I Free Acid Amorphous, 4-(6-(3,5-dimethylisoxazol-4-yl)-1-[(1S)-1-(2-pyridyl)ethyl]pyrrolo[3,2-b]pyridin-3-yl)benzoic acid], the “median overall survival (OS)” value [3] was 41 days, the “survival compared with vehicle (p=0.024) and Ibrutinib (p=0.049)” value ([3]; oral gavage, log-rank test) was “significantly increased survival” and the “leukemic cells in systemic circulation” value ([4]; vs vehicle (FIG. 24A)) was “reduced”. The “leukemic cells locally in spleen” value ([4]; vs vehicle (FIG. 24B)) was “reduced”, the spleen mass ([5]; oral gavage (FIG. 24F)) was “reduced” and the “HE staining of spleen, lung and blood: lymphocytes” value ([5]; oral gavage (FIG. 24G)) was “depleted of lymphocytes”. For the same molecule, the “Ki67 staining of spleen, lung and blood” value ([5]; oral gavage (FIG. 24G)) was “mostly absent”, the “median overall survival (OS)” value ([5]; oral gavage at leukemia onset, vehicle 34 days, p<0.0001 (FIG. 24D)) was 93 days and the “percentage of circulating leukemic PBL” value ([5]; oral gavage, % CD19/CD5/CD45 positive PBL by flow cytometry (FIG. 24E)) was “decreased”.

In the case of `C=CC(=O)N1CCC[C@@H](n2nc(-c3ccc(Oc4ccccc4)cc3)c3c(N)ncnc32)C1` [Ibrutinib, reference compound], the “median overall survival (OS)” value [3] was 32 days.

For `Cc1noc(C)c1-c1cnc2c(-c3ccc(C(=O)O)cc3)cn([C@@H](C)c3ccccn3)c2c1` [Compound I Form A, 4-(6-(3,5-dimethylisoxazol-4-yl)-1-[(1S)-1-(2-pyridyl)ethyl]pyrrolo[3,2-b]pyridin-3-yl)benzoic acid], the DVS weight gain [6] was “about 0.8%”, the “solubility” value ([2]; acetone, ambient temperature) was 36000 µg/mL (≈ 82.1 mM) and the solubility ([2]; acetonitrile, organic solvent or mixture, thermodynamic from solid, acetonitrile (ACN), ambient temperature, read-out: Solubility) was 6000 µg/mL (≈ 13.7 mM). The solubility ([2]; dichloromethane, organic solvent or mixture, thermodynamic from solid, dichloromethane (DCM), ambient temperature, read-out: Solubility) was 12000 µg/mL (≈ 27.4 mM), the “solubility” value [2, 7] was 6000 µg/mL (≈ 13.7 mM) and the solubility ([2]; toluene, organic solvent or mixture, thermodynamic from solid, toluene, ambient temperature, read-out: Solubility) was under 4000 µg/mL.

With `Cc1noc(C)c1-c1cnc2c(-c3ccc(C(=O)O)cc3)cn([C@@H](C)c3ccccn3)c2c1` [Compound I Form D, 4-(6-(3,5-dimethylisoxazol-4-yl)-1-[(1S)-1-(2-pyridyl)ethyl]pyrrolo[3,2-b]pyridin-3-yl)benzoic acid] the “solubility” value ([2]; acetone, ambient temperature) was 4000 µg/mL (≈ 9.12 mM), the “solubility” value ([2]; acetonitrile (ACN), ambient temperature) was under 3000 µg/mL and the solubility ([2]; chloroform, organic solvent or mixture, thermodynamic from solid, chloroform, ambient temperature, read-out: Solubility) was over 59000 µg/mL. For the same molecule, the “solubility” value ([2]; dichloromethane (DCM), ambient temperature) was 24000 µg/mL (≈ 54.7 mM), the solubility ([2]; diethyl ether, organic solvent or mixture, thermodynamic from solid, diethyl ether, ambient temperature, read-out: Solubility) was under 2000 µg/mL and the solubility ([2]; dioxane, organic solvent or mixture, thermodynamic from solid, dioxane, ambient temperature, read-out: Solubility) was under 2000 µg/mL. It also gave a solubility ([2]; ethanol, organic solvent or mixture, thermodynamic from solid, ethanol (EtOH), ambient temperature, read-out: Solubility) of 9000 µg/mL (≈ 20.5 mM), a solubility ([2]; ethyl acetate, organic solvent or mixture, thermodynamic from solid, ethyl acetate (EtOAc), ambient temperature, read-out: Solubility) of under 2000 µg/mL and a solubility ([2]; isopropyl alcohol, organic solvent or mixture, thermodynamic from solid, isopropyl alcohol (IPA), ambient temperature, read-out: Solubility) of 4000 µg/mL (≈ 9.12 mM). The “solubility” value [2, 7] was over 72000 µg/mL, the solubility ([2]; tetrahydrofuran, organic solvent or mixture, thermodynamic from solid, tetrahydrofuran (THF), ambient temperature, read-out: Solubility) was 4000 µg/mL (≈ 9.12 mM) and the “solubility” value ([2]; toluene, ambient temperature) was under 2000 µg/mL. It also gave a solubility ([2]; water, thermodynamic from solid, water, ambient temperature, read-out: Solubility) of 23000 µg/mL (≈ 52.5 mM).

From patent publication US10717735B2, “Solid forms of a compound for modulating kinases” (Plexxikon Inc., priority 2017, dated 2020)
